From US8076487B2, “Pyridone derivative and herbicide” (Kumiai Chemical Industry Co., Ltd., priority 2006, dated 2011)

Legend:
Format in all cases: in vivo
[1] = system: slender amaranth (Amaranthus viridis L.); assay: Test Example 3: herbicidal effect by application to upland field (foliage treatment); details: foliage treatment, 1,000 g active ingredient per 1 hectare, 14th day after application, greenhouse
Summary of the method: (§1)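 Plants were sown in field soil and raised in a greenhouse for two weeks before foliar spraying. A water-diluted wettable powder was applied at 1,000 g active ingredient per hectare in 1,000 liters per hectare. Herbicidal effect was scored on a standard scale 14 days later.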

[2] = system: barnyardgrass (Echinochloa crus-galli (L.) P. Beauv. var. crus-galli); assay: as above; details: foliage treatment, 1,000 g active ingredient per 1 hectare, 14th day after application, greenhouse
Summary of the method: as §1

[3] = system: green foxtail (Setaria viridis (L.) P. Beauv.); assay: as above; details: foliage treatment, 1,000 g active ingredient per 1 hectare, 14th day after application, greenhouse
Summary of the method: as §1

[4] = system: velvetleaf (Abutilon theophrasti medicus); assay: as above; details: foliage treatment, 1,000 g active ingredient per 1 hectare, 14th day after application, greenhouse
Summary of the method: as §1

[5] = system: Japanese bulrush (Scirpus juncoides Roxb.); assay: Test Example 1: herbicidal effect by soil application to paddy field; details: paddy field soil application; active ingredient 1,000 g per 1 hectare; wettable powder added dropwise to water surface the day after sowing; examined on the 21st day after application
Summary of the method: (§2)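 Plants were sown in flooded (3 cm) paddy soil and evaluated for herbicidal effect 21 days after soil application in a greenhouse.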

[6] = system: early watergrass (Echinochloa oryzicola Vasing); assay: as above; details: paddy field soil application; active ingredient 1,000 g per 1 hectare; wettable powder added dropwise to water surface the day after sowing; examined on the 21st day after application
Summary of the method: as §2

[7] = system: heartshape false pickerelweed (Monochoria vaginalis (Burm.f.) C.Presl); assay: as above; details: paddy field soil application; active ingredient 1,000 g per 1 hectare; wettable powder added dropwise to water surface the day after sowing; examined on the 21st day after application
Summary of the method: as §2

Row | Compound | herbicidal effect, Slender Amaranth [1] | herbicidal effect, Barnyardgrass [2] | herbicidal effect, Green Foxtail [3] | herbicidal effect, Velvetleaf [4] | herbicidal effect, Scirpus juncoides Roxb. [5] | herbicidal effect, Echinochloa oryzicola Vasing [6] | herbicidal effect, Monochoria vaginalis (Burm. f.) C. Presl [7]
1 | C=CCn1c(C(F)(F)F)ccc(C(=O)c2cnn(CC)c2OS(=O)(=O)CCC)c1=O [IV-12] | 5 (90% or more of herbicidal effect and crop phytotoxicity) | 5 (90% or more of herbicidal effect and crop phytotoxicity) | 4 (70 to less than 90% of herbicidal effect and crop phytotoxicity) | 5 (90% or more of herbicidal effect and crop phytotoxicity) | 5 (90% or more of herbicidal effect and crop phytotoxicity) | 5 (90% or more of herbicidal effect and crop phytotoxicity) | 5 (90% or more of herbicidal effect and crop phytotoxicity)
2 | C=C(C)Cn1c(C(F)(F)F)ccc(C(=O)c2cnn(C)c2O)c1=O [IV-13] | 5 (90% or more of herbicidal effect and crop phytotoxicity) | 5 (90% or more of herbicidal effect and crop phytotoxicity) | 5 (90% or more of herbicidal effect and crop phytotoxicity) | 5 (90% or more of herbicidal effect and crop phytotoxicity) | 5 (90% or more of herbicidal effect and crop phytotoxicity) | 5 (90% or more of herbicidal effect and crop phytotoxicity) | 5 (90% or more of herbicidal effect and crop phytotoxicity)
3 | CC(C)=CCCn1c(C(F)(F)F)ccc(C(=O)c2cnn(C)c2O)c1=O [IV-15] | 5 (90% or more of herbicidal effect and crop phytotoxicity) | 4 (70 to less than 90% of herbicidal effect and crop phytotoxicity) | 5 (90% or more of herbicidal effect and crop phytotoxicity) | 5 (90% or more of herbicidal effect and crop phytotoxicity) | 5 (90% or more of herbicidal effect and crop phytotoxicity) | 5 (90% or more of herbicidal effect and crop phytotoxicity) | 5 (90% or more of herbicidal effect and crop phytotoxicity)
4 | Cn1ncc(C(=O)c2ccc(C(F)(F)F)n(CCC[S+](C)[O-])c2=O)c1O (stereo not drawn) [IV-58] | 5 (90% or more of herbicidal effect and crop phytotoxicity) | 5 (90% or more of herbicidal effect and crop phytotoxicity) | 4 (70 to less than 90% of herbicidal effect and crop phytotoxicity) | 4 (70 to less than 90% of herbicidal effect and crop phytotoxicity) | 4 (70 to less than 90% of herbicidal effect and crop phytotoxicity) | 5 (90% or more of herbicidal effect and crop phytotoxicity) | 4 (70 to less than 90% of herbicidal effect and crop phytotoxicity)
5 | Cn1ncc(C(=O)c2ccc(C(F)(F)F)n(-c3ccc(Cl)cc3)c2=O)c1O [IV-63] | 5 (90% or more of herbicidal effect and crop phytotoxicity) | 4 (70 to less than 90% of herbicidal effect and crop phytotoxicity) | 4 (70 to less than 90% of herbicidal effect and crop phytotoxicity) | 5 (90% or more of herbicidal effect and crop phytotoxicity) | 5 (90% or more of herbicidal effect and crop phytotoxicity) | 5 (90% or more of herbicidal effect and crop phytotoxicity) | 5 (90% or more of herbicidal effect and crop phytotoxicity)
6 | Cn1ncc(C(=O)c2ccc(C(F)(F)F)n(-c3ccc(OC(F)(F)F)cc3)c2=O)c1O [IV-67] | 5 (90% or more of herbicidal effect and crop phytotoxicity) | 4 (70 to less than 90% of herbicidal effect and crop phytotoxicity) | 4 (70 to less than 90% of herbicidal effect and crop phytotoxicity) | 5 (90% or more of herbicidal effect and crop phytotoxicity) | 5 (90% or more of herbicidal effect and crop phytotoxicity) | 5 (90% or more of herbicidal effect and crop phytotoxicity) | 5 (90% or more of herbicidal effect and crop phytotoxicity)
7 | Cn1ncc(C(=O)c2ccc(C(F)(F)F)n(-c3cccc(S(C)(=O)=O)c3)c2=O)c1O [IV-74] | 5 (90% or more of herbicidal effect and crop phytotoxicity) | 4 (70 to less than 90% of herbicidal effect and crop phytotoxicity) | 4 (70 to less than 90% of herbicidal effect and crop phytotoxicity) | 5 (90% or more of herbicidal effect and crop phytotoxicity) | 5 (90% or more of herbicidal effect and crop phytotoxicity) | 4 (70 to less than 90% of herbicidal effect and crop phytotoxicity) | 4 (70 to less than 90% of herbicidal effect and crop phytotoxicity)
8 | COc1ccc(-n2c(C(F)(F)F)ccc(C(=O)c3cnn(C)c3O)c2=O)cc1OC [IV-77] | 5 (90% or more of herbicidal effect and crop phytotoxicity) | 5 (90% or more of herbicidal effect and crop phytotoxicity) | 3 (50 to less than 70% of herbicidal effect and crop phytotoxicity) | 5 (90% or more of herbicidal effect and crop phytotoxicity) | 5 (90% or more of herbicidal effect and crop phytotoxicity) | 5 (90% or more of herbicidal effect and crop phytotoxicity) | 5 (90% or more of herbicidal effect and crop phytotoxicity)
9 | CCCS(=O)(=O)Oc1c(C(=O)c2ccc(C(F)(F)F)n(-c3ccc4c(c3)OCO4)c2=O)cnn1C(C)C [IV-100] | 4 (70 to less than 90% of herbicidal effect and crop phytotoxicity) | 5 (90% or more of herbicidal effect and crop phytotoxicity) | 5 (90% or more of herbicidal effect and crop phytotoxicity) | 5 (90% or more of herbicidal effect and crop phytotoxicity) | 5 (90% or more of herbicidal effect and crop phytotoxicity) | 5 (90% or more of herbicidal effect and crop phytotoxicity) | 5 (90% or more of herbicidal effect and crop phytotoxicity)
10 | Cn1ncc(C(=O)c2ccc(C(F)(F)F)n(Cc3c(C(F)(F)F)nn(C)c3OC(F)F)c2=O)c1O [IV-108] | 4 (70 to less than 90% of herbicidal effect and crop phytotoxicity) | 4 (70 to less than 90% of herbicidal effect and crop phytotoxicity) | 4 (70 to less than 90% of herbicidal effect and crop phytotoxicity) | 5 (90% or more of herbicidal effect and crop phytotoxicity) | 5 (90% or more of herbicidal effect and crop phytotoxicity) | 5 (90% or more of herbicidal effect and crop phytotoxicity) | 4 (70 to less than 90% of herbicidal effect and crop phytotoxicity)
11 | Cn1ncc(C(=O)c2ccc(C(F)(F)F)n(CC3CCCO3)c2=O)c1OCc1c(F)cccc1F (stereo not drawn) [IV-136] | 5 (90% or more of herbicidal effect and crop phytotoxicity) | 4 (70 to less than 90% of herbicidal effect and crop phytotoxicity) | 4 (70 to less than 90% of herbicidal effect and crop phytotoxicity) | 4 (70 to less than 90% of herbicidal effect and crop phytotoxicity) | 5 (90% or more of herbicidal effect and crop phytotoxicity) | 5 (90% or more of herbicidal effect and crop phytotoxicity) | 5 (90% or more of herbicidal effect and crop phytotoxicity)
12 | Cc1ccc(C(=O)COc2c(C(=O)c3ccc(C(F)(F)F)n(CC4CCCO4)c3=O)cnn2C)cc1 (stereo not drawn) [IV-139] | 5 (90% or more of herbicidal effect and crop phytotoxicity) | 5 (90% or more of herbicidal effect and crop phytotoxicity) | 4 (70 to less than 90% of herbicidal effect and crop phytotoxicity) | 5 (90% or more of herbicidal effect and crop phytotoxicity) | 5 (90% or more of herbicidal effect and crop phytotoxicity) | 5 (90% or more of herbicidal effect and crop phytotoxicity) | 5 (90% or more of herbicidal effect and crop phytotoxicity)
